From US8927500B2, “Peptidomimetic macrocycles” (Aileron Therapeutics, Inc., priority 2012, dated 2015) come the findings set out here.

Where a SMILES comes first, the peptide text is derived from it. Bridges are numbered along the chain shown (N, C = ends). [ ]: non-standard residue; d: D form. R8 = C=CCCCCCC[C@@](C)(N)C(=O)O; S5 = C=CCCC[C@](C)(N)C(=O)O; Nle = CCCC[C@H](N)C(=O)O

One data set relates to SJSA-1 cells. Kind of data set: Cell lysis by peptidomimetic macrocycles (LDH release). The class given is cell-based. To be noted: 1 h at 37C. For orientation: LDH leaks from cells whose membrane has failed.
The target in the next data set is T1, MDMX (Homo sapiens, UniProt O15151).
T1 sequence (O15151 1-125): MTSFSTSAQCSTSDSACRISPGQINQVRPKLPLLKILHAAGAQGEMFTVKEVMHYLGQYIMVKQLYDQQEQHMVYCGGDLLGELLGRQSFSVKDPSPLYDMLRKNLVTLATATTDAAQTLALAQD
Nature of the data set: Competitive fluorescence polarization assay for MDMX. The class given is binding. To be noted: competitive FP assay; for IC50: read-out: IC50 (MDMX); for Ki: read-out: Ki (MDMX). In general terms: In fluorescence polarisation assays a small probe gives low polarisation when free and higher when bound to something large.

The nature of data set [1]: Circular dichroism (CD) analysis of alpha-helicity. The class given is physicochemical. To be noted: for Molar Ellipticity 50% TFE (222 in 50% TFE): CD buffer with 50% TFE; for Molar Ellipticity 50% TFE (222 in 50% TFE) / Molar Ellipticity Benign (222 in 0% TFE): 222 nm, 4° C.; for Molar Ellipticity Benign (222 in 0% TFE): benign CD buffer pH 2, 0% TFE; for % Helix benign compared to 50% TFE parent (CD): benign buffer; for Molar Ellipticity TFE-Molar Ellipticity Benign: difference 50% TFE minus benign.
Procedure: To assay the helicity of peptidomimetic macrocycles, the compounds are dissolved in an aqueous solution (e.g. 50 mM potassium phosphate solution at pH 7, or distilled H2O, to concentrations of 25-50 μM). Circular dichroism (CD) spectra are obtained on a spectropolarimeter (e.g., Jasco J-710) using standard measurement parameters (e.g. temperature, 20° C.; wavelength, 190-260 nm; step resolution, 0.5 nm; speed, 20 nm/sec; accumulations, 10; response, 1 sec; bandwidth, 1 nm; path length, 0.1 cm). […] A Peltier temperature controller was used to maintain temperature control of the optical cell. Results are expressed as mean molar ellipticity [0] […] Peptide concentrations were determined by amino acid analysis. Stock solutions of peptides were prepared in benign CD buffer (20 mM phosphoric acid, pH 2). The stocks were used to prepare peptide solutions of 0.05 mg/ml in either benign CD buffer or CD buffer with 50% trifluoroethanol (TFE) for analyses in a 10 mm pathlength cell. […] The average of six scans was reported.

A further data set concerns Caspase 3. Nature of the data set: Caspase 3 detection assay in SJSA1 cells. The class given is cell-based. To be noted: 48 h, Caspase 3 activation over DMSO-treated cells; for caspase 0.3 uM: 0.3 uM peptide; for caspase 3 uM: 3 uM peptide; for caspase 10 uM: 10 uM peptide; for caspase 30 uM: 30 uM peptide; for caspase 1 uM: 1 uM peptide.
In the next data set the target is MDM2 (Homo sapiens, UniProt Q00987). Nature of the data set: Competitive fluorescence polarization assay for MDM2. The class given is binding. To be noted: competitive FP assay, MDM2; for IC50: read-out: IC50 (MDM2); for Ki: read-out: Ki (MDM2).
Chain of MDM2 (Q00987 1-125): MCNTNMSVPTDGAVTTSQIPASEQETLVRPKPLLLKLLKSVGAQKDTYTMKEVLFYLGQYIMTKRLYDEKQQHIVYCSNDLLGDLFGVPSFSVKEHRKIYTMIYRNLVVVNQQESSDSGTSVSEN

Procedure for SJSA-1 cells: On the day of the assay, media was exchanged with RPMI 1% FBS media, 90 uL of media per well.
10 mM stock solutions of the peptidomimetic macrocycles were prepared in 100% DMSO.
The negative control (non-lytic) sample was 0.5% DMSO alone and positive control (lytic) samples include 10 uM Melittin and 1% Triton X-100.
Cell plates were incubated for 1 hour at 37C. After the 1 hour incubation, the morphology of the cells is examined by microscope and then the plates were centrifuged at 1200 rpm for 5 minutes at room temperature. 40 uL of supernatant for each peptidomimetic macrocycle and control sample is transferred to clear assay plates.

In the case of `CC(=O)N[C@@H](CC(C)C)C(=O)N[C@H](C(=O)N[C@@H](Cc1ccccc1)C(=O)N[C@]1(C)CCCCCCC=CCCC[C@@](C)(C(=O)N[C@@H](C)C(=O)N[C@@H](C)C(=O)N[C@@H](C)C(=O)N[C@H](C)C(N)=O)NC(=O)[C@H](CC(C)C)NC(=O)[C@H](CCC(N)=O)NC(=O)[C@H](C)NC(=O)[C@H](Cc2c[nH]c3ccccc23)NC(=O)[C@H](Cc2ccc(O)cc2)NC(=O)[C@H](C)NC1=O)[C@@H](C)O` (single isomer, unassigned) [compound 230], in the data set on SJSA-1 cells, the “6.25 uM % Lysed cells (1 h LDH)” value is 0.5%, the “25 uM % Lysed cells (1 h LDH)” value was determined as 0% and the “50 uM % Lysed cells (1 h LDH)” value was 3%. Moreover, at MDMX, the IC50 fell in the range of 0.01 to 0.1 µM and the Ki is under 0.01 µM. Besides, in data set [1], the “% Helix 50% TFE compared to 50% TFE parent (CD)” value (“% Helix 50% TFE” below) amounted to 123.9%, the “Molar Ellipticity 50% TFE (222 in 50% TFE)” value (shortened to “Molar Ellipticity 50% TFE”) is given as −17974 deg cm2 dmol-1, the “Molar Ellipticity Benign (222 in 0% TFE)” value is on record as −213.2 deg cm2 dmol-1 and the “% Helix benign compared to 50% TFE parent (CD)” value (“% Helix benign” for short) is given as 1.5%. Further, the “Molar Ellipticity TFE-Molar Ellipticity Benign” value in data set [1] was −17760.8 deg cm2 dmol-1. In the data set with Caspase 3, the “caspase 0.3 uM” value is recorded as 1, the “caspase 3 uM” value amounted to 2, the “caspase 10 uM” value was determined as 3 and the “caspase 30 uM” value was determined as 11. Moreover, at MDM2, the IC50 was under 0.01 µM and the Ki is under 0.01 µM.

In the case of `CC(=O)N[C@@H](CC(C)C)C(=O)N[C@H](C(=O)N[C@@H](Cc1ccccc1)C(=O)N[C@]1(C)CCCCCCC=CCCC[C@@](C)(C(=O)N[C@@H](CO)C(=O)N[C@@H](C)C(=O)N[C@@H](Cc2ccccc2)C(N)=O)NC(=O)[C@H](CC(C)C)NC(=O)[C@H](CCC(N)=O)NC(=O)[C@H](C)NC(=O)[C@H](Cc2c[nH]c3ccccc23)NC(=O)[C@H](Cc2ccc(O)cc2)NC(=O)[C@H](C)NC1=O)[C@@H](C)O` [compound 7] (Ac-LTF[R8]AYWAQL[S5]SAF-NH2; staple 4-11), in the data set with SJSA-1 cells, the “6.25 uM % Lysed cells (1 h LDH)” value stood at 0%, the “25 uM % Lysed cells (1 h LDH)” value worked out at 0% and the “50 uM % Lysed cells (1 h LDH)” value is on record as 0%. Further, at MDMX, the IC50 is 0.01 to 0.1 µM and the Ki was 0.01 to 0.1 µM. In data set [1], the “% Helix 50% TFE” value was found to be 137.3%, the “Molar Ellipticity 50% TFE” value is −19921.4 deg cm2 dmol-1, the “Molar Ellipticity Benign (222 in 0% TFE)” value amounted to 124 deg cm2 dmol-1 and the “% Helix benign” value was −0.9%. Moreover, the “Molar Ellipticity TFE-Molar Ellipticity Benign” value in data set [1] is given as −20045.4 deg cm2 dmol-1. For the same molecule, in the data set on Caspase 3, the “caspase 0.3 uM” value came out at 0.93, the “caspase 1 uM” value is reported as 1.4, the “caspase 3 uM” value came out at 5.08 and the “caspase 10 uM” value was determined as 21.7. Besides, the “caspase 30 uM” value in the data set on Caspase 3 is recorded as 23.96. On MDM2, the half-inhibitory concentration (IC50) was in the range of 0.01 to 0.1 µM and the Ki is under 0.01 µM.

Regarding `CC(=O)N[C@@H](CC(C)C)C(=O)N[C@H](C(=O)N[C@@H](Cc1ccccc1)C(=O)N[C@]1(C)CCCCCCC=CCCC[C@@](C)(C(=O)N[C@@H](CO)C(=O)N[C@@H](C)C(=O)N[C@@H](C)C(N)=O)NC(=O)[C@H](CC(C)C)NC(=O)[C@H](CCC(N)=O)NC(=O)[C@H](C)NC(=O)[C@H](Cc2c[nH]c3ccccc23)NC(=O)[C@H](Cc2ccc(O)cc2)NC(=O)[C@H](C)NC1=O)[C@@H](C)O` [compound 11], in the data set on SJSA-1 cells, the “6.25 uM % Lysed cells (1 h LDH)” value is recorded as −2%, the “25 uM % Lysed cells (1 h LDH)” value is given as 2% and the “50 uM % Lysed cells (1 h LDH)” value worked out at 3%. In addition, in data set [1], the “% Helix 50% TFE” value turned out to be 106.1%, the “Molar Ellipticity 50% TFE” value is −16623.4 deg cm2 dmol-1, the “Molar Ellipticity Benign (222 in 0% TFE)” value is recorded as −398.2 deg cm2 dmol-1 and the “% Helix benign” value is reported as 2.5%. Further, in the data set on Caspase 3, the “caspase 0.3 uM” value is 1, the “caspase 3 uM” value is reported as 5, the “caspase 10 uM” value worked out at 23 and the “caspase 30 uM” value is 33.5.

Regarding `CCCC[C@H](NC(=O)[C@H](CCC(N)=O)NC(=O)[C@H](CCC(N)=O)NC(=O)[C@]1(C)CCCC=CCCCCCC[C@@](C)(NC(=O)[C@H](Cc2ccccc2)NC(C)=O)C(=O)N[C@@H](C)C(=O)N[C@@H](Cc2ccc(O)cc2)C(=O)N[C@@H](Cc2c[nH]c3ccccc23)C(=O)N[C@@H]([C@@H](C)O)C(=O)N[C@@H](C)C(=O)N[C@@H](CC(C)C)C(=O)N1)C(=O)N[C@@H](C(N)=O)C(C)C` [compound 41] (Ac-F[R8]AYWTAL[S5]QQ[Nle][dV]-NH2; staple 2-9), on MDMX, the IC50 is 0.01 to 0.1 µM and the Ki lay within 0.01 to 0.1 µM. For the same molecule, in data set [1], the “% Helix 50% TFE” value is 136%, the “Molar Ellipticity 50% TFE” value is −21319.4 deg cm2 dmol-1, the “Molar Ellipticity Benign (222 in 0% TFE)” value is given as −909 deg cm2 dmol-1 and the “% Helix benign” value came to 5.8%. For the same molecule, the “Molar Ellipticity TFE-Molar Ellipticity Benign” value in data set [1] was 20410.4 deg cm2 dmol-1. In addition, at MDM2, the IC50 fell in the range of 0.1 to 1 µM and the Ki is 0.01 to 0.1 µM.

For the molecule `CC(=O)N[C@@H](CC(C)C)C(=O)N[C@H](C(=O)N[C@@H](Cc1ccccc1)C(=O)N[C@]1(C)CCCCCCC=CCCC[C@@](C)(C(=O)N[C@@H](Cc2c[nH]cn2)C(=O)N[C@@H](Cc2c[nH]cn2)C(=O)N[C@@H](CC(C)C)C(=O)N[C@H](C)C(N)=O)NC(=O)[C@H](CC(C)C)NC(=O)[C@H](CCC(N)=O)NC(=O)[C@H](C)NC(=O)[C@H](Cc2c[nH]c3ccccc23)NC(=O)[C@H](Cc2ccc(O)cc2)NC(=O)[C@H](C)NC1=O)[C@@H](C)O` [compound 43] (Ac-LTF[R8]AYWAQL[S5]HHL[dA]-NH2; staple 4-11), in the data set on SJSA-1 cells, the “6.25 uM % Lysed cells (1 h LDH)” value came to 0%, the “25 uM % Lysed cells (1 h LDH)” value was −1% and the “50 uM % Lysed cells (1 h LDH)” value is given as −1%. Further, on MDMX, the IC50 lay within 0.01 to 0.1 µM and the Ki was 0.01 to 0.1 µM. In data set [1], the “% Helix 50% TFE” value is given as 116.4%, the “Molar Ellipticity 50% TFE” value is −18247.4 deg cm2 dmol-1, the “Molar Ellipticity Benign (222 in 0% TFE)” value was −15334.5 deg cm2 dmol-1 and the “% Helix benign” value worked out at 97.8%. Further, the “Molar Ellipticity TFE-Molar Ellipticity Benign” value in data set [1] is given as 2912.9 deg cm2 dmol-1. Besides, on MDM2, the IC50 was 0.01 to 0.1 µM and the Ki is under 0.01 µM.

Regarding `CCCC[C@H](NC(=O)[C@H](C)NC(=O)[C@H](C)NC(=O)[C@]1(C)CCC/C=C/CCCCCC[C@@](C)(NC(=O)[C@H](Cc2ccccc2)NC(=O)[C@@H](NC(=O)[C@H](CC(C)C)NC(C)=O)[C@@H](C)O)C(=O)N[C@@H](C)C(=O)N[C@@H](Cc2ccc(O)cc2)C(=O)N[C@@H](Cc2c[nH]c3ccccc23)C(=O)N[C@@H](C)C(=O)N[C@@H](CCC(N)=O)C(=O)N[C@@H](CC(C)C)C(=O)N1)C(=O)N[C@@H](C)C(N)=O` [compound 69], in the data set with SJSA-1 cells, the “6.25 uM % Lysed cells (1 h LDH)” value was 1%, the “25 uM % Lysed cells (1 h LDH)” value is listed as −0.5% and the “50 uM % Lysed cells (1 h LDH)” value is reported as 5%. For the same molecule, at MDMX, the IC50 is 0.1 to 1 µM and the Ki is 0.01 to 0.1 µM. Also, in data set [1], the “% Helix 50% TFE” value amounted to 148.2%, the “Molar Ellipticity 50% TFE” value is given as −21509.7 deg cm2 dmol-1, the “Molar Ellipticity Benign (222 in 0% TFE)” value is −102.6 deg cm2 dmol-1 and the “% Helix benign” value was determined as 0.7%. In the data set with Caspase 3, the “caspase 0.3 uM” value was 4.34, the “caspase 1 uM” value stood at 9.51, the “caspase 3 uM” value worked out at 16.39 and the “caspase 10 uM” value turned out to be 26.59. Further, the “caspase 30 uM” value in the data set with Caspase 3 is on record as 26.11. On MDM2, the IC50 lay in the range of 0.01 to 0.1 µM and the Ki is under 0.01 µM.

`CC(=O)N[C@@H](CC(C)C)C(=O)N[C@H](C(=O)N[C@@H](Cc1ccccc1)C(=O)N[C@]1(C)CCCCCCC=CCCC[C@@](C)(C(=O)N[C@@H](C)C(=O)N[C@@H](C)C(=O)N[C@@H](C)C(=O)N[C@@H](C)C(=O)N[C@H](C)C(N)=O)NC(=O)[C@H](CC(C)C)NC(=O)[C@H](CCC(N)=O)NC(=O)[C@H](C)NC(=O)[C@H](Cc2c[nH]c3ccccc23)NC(=O)[C@H](Cc2ccc(O)cc2)NC(=O)[C@H](C)NC1=O)[C@@H](C)O` [compound 233]: in the data set on SJSA-1 cells, the “6.25 uM % Lysed cells (1 h LDH)” value stood at 2.5%, the “25 uM % Lysed cells (1 h LDH)” value amounted to 3.5% and the “50 uM % Lysed cells (1 h LDH)” value is 6%. In data set [1], the “% Helix 50% TFE” value came to 131.2%, the “Molar Ellipticity 50% TFE” value is −19032.6 deg cm2 dmol-1, the “Molar Ellipticity Benign (222 in 0% TFE)” value is listed as −477.9 deg cm2 dmol-1 and the “% Helix benign” value turned out to be 3.3%. Besides, in data set [1], the “Molar Ellipticity TFE-Molar Ellipticity Benign” value is on record as −18554.7 deg cm2 dmol-1. In addition, in the data set with Caspase 3, the “caspase 0.3 uM” value was 6, the “caspase 1 uM” value is 8, the “caspase 3 uM” value was 17 and the “caspase 10 uM” value stood at 22. Besides, the “caspase 30 uM” value in the data set with Caspase 3 amounted to 23.

As usually defined, the IC50 is the concentration needed to halve the response being measured. As a reminder, the Ki is a measure of affinity in units of concentration, obtained from inhibition or displacement.
